{"source": "patent US8603546B2", "about": "“Herbal supplement for increased muscle strength and endurance for athletes” (priority 1999, dated 2013)", "key": {"athletes [1]": {"tested_on": "athletes", "experiment": "Endurance group: maximum repetitions in 6 basic exercises by athletes taking galanthamine", "format": "in vivo, human", "conditions": "vs initial level", "from_the_text": "(§1) 30 healthy individuals, both male and female, ages 18-28, are separated into 2 groups, 15 persons each, to observe the changes in their strength and endurance after administration of galanthamine and regular physical training. All subjects are athletes who have exercised regularly in the gym for 1 to 3 years. During the 3 week test period, all subjects train about 4 times a week with a special exercise program for the first week as described below, supplemented with the subjects' own preferred training schedule. Strength and endurance are observed through 6 basic exercises involving the major muscle groups as follows:\n10 participants in each group take galanthamine, the other 5 take a placebo. The dosage of galanthamine is 7.5 mg daily taken with a meal 1.5-2 hours before the workout on training days and 5 mg daily on non-training days divided into two equal portions taken in the morning and in the afternoon. 2. The Strength Group. • a. The initial level. Before administration of galanthamine the initial strength level of each subject is determined and is defined as the maximum weight a subject is able to lift in all 6 exercises. • b. The training schedule. […]"}, "athletes [2]": {"tested_on": "athletes", "experiment": "Strength group: maximum weight lifted in 6 basic exercises by athletes taking galanthamine", "format": "in vivo, human", "from_the_text": "as §1\n10 participants in each group take galanthamine, the other 5 take a placebo. The dosage of galanthamine is 7.5 mg daily taken with a meal 1.5-2 hours before the workout on training days and 5 mg daily on non-training days divided into two equal portions taken in the morning and in the afternoon. 2. The Strength Group. • a. The initial level. Before administration of galanthamine the initial strength level of each subject is determined and is defined as the maximum weight a subject is able to lift in all 6 exercises. • b. The training schedule. The subjects use a split training method, that is they alternate on one day training their chest, back and shoulder muscles (performing exercises #1, 2 and 3, respectively) and the next day train their biceps, triceps and legs (exercises #4, 5 and 6, respectively). The subjects do 5-6 sets in each exercise using a pyramidal principle for increasing their strength, i.e. they start every exercise doing 10-15 repetitions using a middle weight, then increase the weight gradually, being able to do fewer repetitions, until the maximum weight they are able to lift for one repetition with difficulty is reached. 2 sets are then performed using the same or 5-10% less weight. This maximum weight is considered the “record for the day”, and is compared to the initial level. • c. The results. An increase in strength is observed almost immediately after administration of galanthamine. […]"}}, "data": [{"smiles": "COc1ccc2c3c1O[C@H]1C[C@@H](O)C=C[C@@]31CCN(C)C2", "note": "[galanthamine]", "values": [{"measurement": "average endurance increase", "setting": "athletes [1]; after the first week, 7.5 mg daily on training days, 5 mg daily on non-training days", "result": 11, "unit": "%"}, {"measurement": "average endurance increase", "setting": "athletes [1]; end of the trial, after 3 weeks of treatment", "result": 24, "unit": "%"}, {"measurement": "average increase in strength", "setting": "athletes [2]; after 1 week, 7.5 mg daily on training days, 5 mg daily on non-training days, vs initial level", "result": "4-7%"}, {"measurement": "total increase in strength", "setting": "athletes [2]; by the third week, 7.5 mg daily on training days, 5 mg daily on non-training days, vs initial level", "result": "10-13%"}, {"measurement": "increase in strength reported by athletes", "setting": "athletes [2]; continued galanthamine for up to 3 months, during the entire period", "result": "over 20%"}]}]}
